Key:
Assay in all cases: SelectScreen kinase assay
Format in all cases: biochemical
PRAK_h = molecular target: T1, PRAK_h (Homo sapiens, UniProt Q8IW41); settings: KM ATP, read-out: % control
T1 construct: purchased Life Technologies (Invitrogen) SelectScreen, Z'-LYTE / Adapta
How it was run: (§1)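 Z'-Lyte or Adapta format; compound fixed at 3 µM; ATP at KM, 10 µM or 100 µM as indicated; read-out % control relative to uninhibited DMSO wells.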

MARK1_h = molecular target: T2, MARK1_h (Homo sapiens, UniProt Q9P0L2); settings: KM ATP, read-out: % control
T2 construct: purchased Life Technologies (Invitrogen) SelectScreen, Z'-LYTE / Adapta
How it was run: as §1

JAK2-JH1-JH2_h = molecular target: T3, JAK2-JH1-JH2_h (Homo sapiens, UniProt O60674); settings: KM ATP, read-out: % control
T3 construct: JAK2-JH1-JH2_h; purchased Life Technologies (Invitrogen) SelectScreen, Z'-LYTE / Adapta
How it was run: as §1

HIPK1_h = molecular target: T4, HIPK1_h (Homo sapiens, UniProt Q86Z02); settings: KM ATP, read-out: % control
T4 construct: purchased Life Technologies (Invitrogen) SelectScreen, Z'-LYTE / Adapta
How it was run: as §1

Ros_h = molecular target: T5, Ros_h (Homo sapiens, UniProt P08922); settings: KM ATP, read-out: % control
T5 construct: purchased Life Technologies (Invitrogen) SelectScreen, Z'-LYTE / Adapta
How it was run: as §1

JAK2_h = JAK2_h (Homo sapiens, UniProt O60674)
How it was run: as §1

PKA_h = molecular target: T6, PKA_h (Homo sapiens, UniProt P17612); settings: KM ATP, read-out: % control
T6 construct: purchased Life Technologies (Invitrogen) SelectScreen, Z'-LYTE / Adapta
How it was run: as §1

PDGFR-beta_h = molecular target: T7, PDGFR-beta_h (Homo sapiens, UniProt P09619); settings: KM ATP, read-out: % control
T7 construct: purchased Life Technologies (Invitrogen) SelectScreen, Z'-LYTE / Adapta
How it was run: as §1

PAK7_h = molecular target: T8, PAK7_h (Homo sapiens, UniProt Q9P286); settings: KM ATP, read-out: % control
T8 construct: purchased Life Technologies (Invitrogen) SelectScreen, Z'-LYTE / Adapta
How it was run: as §1

JNK3_h = molecular target: T9, JNK3_h (Homo sapiens, UniProt P53779); settings: 100 µM ATP, read-out: % control
T9 construct: purchased Life Technologies (Invitrogen) SelectScreen, Z'-LYTE / Adapta
How it was run: as §1

CaMKIV_h = molecular target: T10, CaMKIV_h (Homo sapiens, UniProt Q16566); settings: KM ATP, read-out: % control
T10 construct: purchased Life Technologies (Invitrogen) SelectScreen, Z'-LYTE / Adapta
How it was run: as §1

Fyn_h = molecular target: T11, Fyn_h (Homo sapiens, UniProt P06241); settings: KM ATP, read-out: % control
T11 construct: purchased Life Technologies (Invitrogen) SelectScreen, Z'-LYTE / Adapta
How it was run: as §1

cSRC-N1_h = molecular target: T12, cSRC-N1_h (Homo sapiens, UniProt P12931); settings: KM ATP, read-out: % control
T12 construct: purchased Life Technologies (Invitrogen) SelectScreen, Z'-LYTE / Adapta
How it was run: as §1

SRPK2_h = molecular target: T13, SRPK2_h (Homo sapiens, UniProt P78362); settings: KM ATP, read-out: % control
T13 construct: purchased Life Technologies (Invitrogen) SelectScreen, Z'-LYTE / Adapta
How it was run: as §1

BTK_h = molecular target: T14, BTK_h (Homo sapiens, UniProt Q06187); settings: KM ATP, read-out: % control
T14 construct: purchased Life Technologies (Invitrogen) SelectScreen, Z'-LYTE / Adapta
How it was run: as §1

CLK1_h = molecular target: T15, CLK1_h (Homo sapiens, UniProt P49759); settings: KM ATP, read-out: % control
T15 construct: purchased Life Technologies (Invitrogen) SelectScreen, Z'-LYTE / Adapta
How it was run: as §1

Ron_h = molecular target: T16, Ron_h (Homo sapiens, UniProt Q04912); settings: KM ATP, read-out: % control
T16 construct: purchased Life Technologies (Invitrogen) SelectScreen, Z'-LYTE / Adapta
How it was run: as §1

MSK1_h = molecular target: T17, MSK1_h (Homo sapiens, UniProt O75582); settings: KM ATP, read-out: % control
T17 construct: purchased Life Technologies (Invitrogen) SelectScreen, Z'-LYTE / Adapta
How it was run: as §1

PhK-gamma2_h = molecular target: T18, PhK-gamma2_h (Homo sapiens, UniProt P15735); settings: KM ATP, read-out: % control
T18 construct: purchased Life Technologies (Invitrogen) SelectScreen, Z'-LYTE / Adapta
How it was run: as §1

EGFR_L858R_h = molecular target: T19, EGFR_L858R_h (Homo sapiens, UniProt P00533, L858R); settings: KM ATP, read-out: % control
T19 construct: purchased Life Technologies (Invitrogen) SelectScreen, Z'-LYTE / Adapta
How it was run: as §1

Abl_G250E_h = molecular target: T20, Abl_G250E_h (Homo sapiens, UniProt P00519, G250E); settings: KM ATP, read-out: % control
T20 construct: purchased Life Technologies (Invitrogen) SelectScreen, Z'-LYTE / Adapta
How it was run: as §1

EGFR_T790M_L858R_h = molecular target: T21, EGFR_T790M_L858R_h (Homo sapiens, UniProt P00533, L858R/T790M); settings: KM ATP, read-out: % control
T21 construct: purchased Life Technologies (Invitrogen) SelectScreen, Z'-LYTE / Adapta
How it was run: as §1

AMPK_A2_B1_G1_h = molecular target: T22, AMPK_A2_B1_G1_h (Homo sapiens, UniProt P54646); settings: KM ATP, read-out: % control
T22 construct: purchased Life Technologies (Invitrogen) SelectScreen, Z'-LYTE / Adapta
How it was run: as §1

CSK_h = molecular target: T23, CSK_h (Homo sapiens, UniProt P41240); settings: KM ATP, read-out: % control
T23 construct: purchased Life Technologies (Invitrogen) SelectScreen, Z'-LYTE / Adapta
How it was run: as §1

CAMK1_h = molecular target: T24, CAMK1_h (Homo sapiens, UniProt Q14012); settings: 10 µM ATP, read-out: % control
T24 construct: purchased Life Technologies (Invitrogen) SelectScreen, Z'-LYTE / Adapta
How it was run: as §1

MuSK_h = molecular target: T25, MuSK_h (Homo sapiens, UniProt O15146); settings: KM ATP, read-out: % control
T25 construct: purchased Life Technologies (Invitrogen) SelectScreen, Z'-LYTE / Adapta
How it was run: as §1

Rse_h = molecular target: T26, Rse_h (Homo sapiens, UniProt Q06418); settings: KM ATP, read-out: % control
T26 construct: purchased Life Technologies (Invitrogen) SelectScreen, Z'-LYTE / Adapta
How it was run: as §1

Rsk2_h = molecular target: T27, Rsk2_h (Homo sapiens, UniProt P51812); settings: KM ATP, read-out: % control
T27 construct: purchased Life Technologies (Invitrogen) SelectScreen, Z'-LYTE / Adapta
How it was run: as §1

BRK_h = molecular target: T28, BRK_h (Homo sapiens, UniProt Q13882); settings: KM ATP, read-out: % control
T28 construct: purchased Life Technologies (Invitrogen) SelectScreen, Z'-LYTE / Adapta
How it was run: as §1

Ret_h = Ret_h (Homo sapiens, UniProt P07949)
How it was run: as §1

FGFR1_h = molecular target: T29, FGFR1_h (Homo sapiens, UniProt P11362); settings: KM ATP, read-out: % control
T29 construct: purchased Life Technologies (Invitrogen) SelectScreen, Z'-LYTE / Adapta
How it was run: as §1

CK2_h = molecular target: T30, CK2_h (Homo sapiens, UniProt P68400); settings: KM ATP, read-out: % control
T30 construct: purchased Life Technologies (Invitrogen) SelectScreen, Z'-LYTE / Adapta
How it was run: as §1

TAO1_h = molecular target: T31, TAO1_h (Homo sapiens, UniProt Q9UL54); settings: KM ATP, read-out: % control
T31 construct: purchased Life Technologies (Invitrogen) SelectScreen, Z'-LYTE / Adapta
How it was run: as §1

[1] = 3 µM, KM ATP, read-out: % control
[2] = 10-point dose-response, commercial vendor

Sequence of Ret_h (P07949 29-1114): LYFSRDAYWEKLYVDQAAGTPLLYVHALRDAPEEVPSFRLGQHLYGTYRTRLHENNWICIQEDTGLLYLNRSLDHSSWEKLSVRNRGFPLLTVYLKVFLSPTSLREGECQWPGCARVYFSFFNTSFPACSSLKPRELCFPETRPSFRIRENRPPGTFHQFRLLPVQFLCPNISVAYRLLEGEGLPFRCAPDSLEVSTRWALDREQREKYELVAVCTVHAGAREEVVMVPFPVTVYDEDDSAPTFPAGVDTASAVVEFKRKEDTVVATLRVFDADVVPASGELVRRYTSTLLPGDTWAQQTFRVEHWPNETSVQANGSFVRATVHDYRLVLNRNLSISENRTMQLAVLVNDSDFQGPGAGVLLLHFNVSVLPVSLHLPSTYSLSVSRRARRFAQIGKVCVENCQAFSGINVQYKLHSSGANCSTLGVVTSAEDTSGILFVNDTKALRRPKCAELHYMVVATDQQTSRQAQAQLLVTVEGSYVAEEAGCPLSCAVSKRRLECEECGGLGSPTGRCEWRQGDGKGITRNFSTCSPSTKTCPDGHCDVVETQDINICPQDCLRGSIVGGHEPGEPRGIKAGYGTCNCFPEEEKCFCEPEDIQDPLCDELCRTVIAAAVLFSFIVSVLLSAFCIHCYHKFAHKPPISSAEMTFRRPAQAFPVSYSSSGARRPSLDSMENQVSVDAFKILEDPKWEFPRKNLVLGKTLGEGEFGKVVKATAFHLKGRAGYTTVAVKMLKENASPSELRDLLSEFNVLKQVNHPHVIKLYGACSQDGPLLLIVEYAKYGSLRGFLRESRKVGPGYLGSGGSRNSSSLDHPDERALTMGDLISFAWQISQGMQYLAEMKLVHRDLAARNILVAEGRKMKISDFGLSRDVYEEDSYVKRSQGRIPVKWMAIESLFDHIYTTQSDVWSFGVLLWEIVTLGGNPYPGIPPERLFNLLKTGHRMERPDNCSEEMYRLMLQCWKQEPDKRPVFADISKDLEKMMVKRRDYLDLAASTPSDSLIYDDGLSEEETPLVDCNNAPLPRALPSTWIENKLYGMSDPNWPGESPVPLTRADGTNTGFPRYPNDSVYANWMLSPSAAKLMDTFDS
Sequence of JAK2_h (O60674 whole entry): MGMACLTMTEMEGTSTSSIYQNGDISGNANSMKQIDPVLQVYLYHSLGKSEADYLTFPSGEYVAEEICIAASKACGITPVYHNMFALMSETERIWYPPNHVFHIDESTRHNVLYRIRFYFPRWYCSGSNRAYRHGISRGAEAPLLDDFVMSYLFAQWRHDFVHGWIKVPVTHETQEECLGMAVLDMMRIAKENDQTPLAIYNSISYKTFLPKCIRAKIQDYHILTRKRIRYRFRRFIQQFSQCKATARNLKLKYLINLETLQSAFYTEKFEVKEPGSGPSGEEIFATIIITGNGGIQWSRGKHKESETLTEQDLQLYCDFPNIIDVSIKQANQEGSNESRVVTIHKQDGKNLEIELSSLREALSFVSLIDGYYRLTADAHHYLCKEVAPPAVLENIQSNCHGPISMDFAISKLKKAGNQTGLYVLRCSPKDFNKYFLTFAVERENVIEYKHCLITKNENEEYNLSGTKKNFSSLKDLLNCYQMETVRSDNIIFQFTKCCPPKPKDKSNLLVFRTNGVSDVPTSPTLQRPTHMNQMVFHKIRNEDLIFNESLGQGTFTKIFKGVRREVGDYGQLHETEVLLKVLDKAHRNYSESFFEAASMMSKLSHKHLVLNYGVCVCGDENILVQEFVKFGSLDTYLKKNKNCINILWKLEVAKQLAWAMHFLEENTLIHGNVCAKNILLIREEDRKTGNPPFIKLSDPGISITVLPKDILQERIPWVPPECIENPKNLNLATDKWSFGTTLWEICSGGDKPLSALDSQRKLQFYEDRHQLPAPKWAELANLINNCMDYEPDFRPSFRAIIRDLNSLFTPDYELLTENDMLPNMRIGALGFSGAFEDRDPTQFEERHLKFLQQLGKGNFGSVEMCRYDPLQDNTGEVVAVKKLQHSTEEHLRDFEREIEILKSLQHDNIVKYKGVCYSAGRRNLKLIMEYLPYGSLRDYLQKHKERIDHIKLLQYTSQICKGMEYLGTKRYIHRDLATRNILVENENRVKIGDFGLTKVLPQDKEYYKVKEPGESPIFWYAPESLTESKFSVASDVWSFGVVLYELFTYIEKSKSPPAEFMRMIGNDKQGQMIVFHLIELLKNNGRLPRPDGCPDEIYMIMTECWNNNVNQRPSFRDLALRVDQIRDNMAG
T25 sequence (O15146 24-869): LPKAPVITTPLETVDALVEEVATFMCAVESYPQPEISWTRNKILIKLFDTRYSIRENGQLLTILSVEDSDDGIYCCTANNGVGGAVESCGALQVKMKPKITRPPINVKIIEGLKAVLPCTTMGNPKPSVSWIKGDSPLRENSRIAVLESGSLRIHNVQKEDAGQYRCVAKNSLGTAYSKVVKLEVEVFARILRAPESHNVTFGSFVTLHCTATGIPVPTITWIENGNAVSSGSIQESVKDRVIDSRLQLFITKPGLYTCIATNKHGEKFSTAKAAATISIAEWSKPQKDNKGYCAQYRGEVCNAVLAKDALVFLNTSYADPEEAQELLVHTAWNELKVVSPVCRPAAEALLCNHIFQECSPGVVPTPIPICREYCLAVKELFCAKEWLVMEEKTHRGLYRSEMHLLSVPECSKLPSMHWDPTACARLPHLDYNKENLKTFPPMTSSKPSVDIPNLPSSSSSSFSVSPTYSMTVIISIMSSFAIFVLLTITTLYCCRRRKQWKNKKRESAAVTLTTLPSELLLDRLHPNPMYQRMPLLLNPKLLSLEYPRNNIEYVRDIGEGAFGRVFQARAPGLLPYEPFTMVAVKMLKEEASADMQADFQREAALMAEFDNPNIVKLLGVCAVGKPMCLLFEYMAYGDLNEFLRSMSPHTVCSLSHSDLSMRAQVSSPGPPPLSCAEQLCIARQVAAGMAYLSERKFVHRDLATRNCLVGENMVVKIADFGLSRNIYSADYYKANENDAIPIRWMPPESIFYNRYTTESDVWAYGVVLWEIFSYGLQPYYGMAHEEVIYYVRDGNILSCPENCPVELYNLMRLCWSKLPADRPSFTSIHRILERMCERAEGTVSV
T8 sequence (Q9P286 whole entry): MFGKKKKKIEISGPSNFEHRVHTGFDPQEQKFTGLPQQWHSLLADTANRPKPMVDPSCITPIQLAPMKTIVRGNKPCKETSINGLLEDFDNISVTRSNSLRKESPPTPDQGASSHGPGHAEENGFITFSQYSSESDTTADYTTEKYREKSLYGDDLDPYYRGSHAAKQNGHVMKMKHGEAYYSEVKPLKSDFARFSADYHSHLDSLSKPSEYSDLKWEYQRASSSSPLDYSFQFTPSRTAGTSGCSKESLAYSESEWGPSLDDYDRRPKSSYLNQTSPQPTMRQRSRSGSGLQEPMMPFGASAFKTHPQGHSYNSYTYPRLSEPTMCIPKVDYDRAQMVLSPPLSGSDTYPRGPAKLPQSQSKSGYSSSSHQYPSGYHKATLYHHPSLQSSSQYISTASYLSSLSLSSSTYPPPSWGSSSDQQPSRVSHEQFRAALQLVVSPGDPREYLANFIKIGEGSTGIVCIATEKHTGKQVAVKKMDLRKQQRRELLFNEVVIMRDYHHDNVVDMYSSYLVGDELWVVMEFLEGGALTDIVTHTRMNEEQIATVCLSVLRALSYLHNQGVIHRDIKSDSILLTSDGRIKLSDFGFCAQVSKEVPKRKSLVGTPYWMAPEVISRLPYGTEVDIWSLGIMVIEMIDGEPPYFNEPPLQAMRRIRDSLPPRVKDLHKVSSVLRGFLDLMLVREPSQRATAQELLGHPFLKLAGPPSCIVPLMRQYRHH
T28 sequence (Q13882 whole entry): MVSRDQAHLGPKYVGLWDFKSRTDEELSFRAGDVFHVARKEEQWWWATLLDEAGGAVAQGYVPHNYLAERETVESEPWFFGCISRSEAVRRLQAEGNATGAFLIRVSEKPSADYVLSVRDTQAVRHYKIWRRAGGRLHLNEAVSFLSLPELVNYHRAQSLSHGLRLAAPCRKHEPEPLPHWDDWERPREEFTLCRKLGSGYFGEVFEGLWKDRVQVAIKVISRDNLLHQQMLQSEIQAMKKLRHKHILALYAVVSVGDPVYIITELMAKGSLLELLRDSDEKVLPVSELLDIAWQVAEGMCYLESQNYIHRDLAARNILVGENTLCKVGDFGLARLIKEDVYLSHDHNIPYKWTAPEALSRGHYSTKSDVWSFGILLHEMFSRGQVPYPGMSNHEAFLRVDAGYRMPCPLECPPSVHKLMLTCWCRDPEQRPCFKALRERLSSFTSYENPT
T14 sequence (Q06187 whole entry): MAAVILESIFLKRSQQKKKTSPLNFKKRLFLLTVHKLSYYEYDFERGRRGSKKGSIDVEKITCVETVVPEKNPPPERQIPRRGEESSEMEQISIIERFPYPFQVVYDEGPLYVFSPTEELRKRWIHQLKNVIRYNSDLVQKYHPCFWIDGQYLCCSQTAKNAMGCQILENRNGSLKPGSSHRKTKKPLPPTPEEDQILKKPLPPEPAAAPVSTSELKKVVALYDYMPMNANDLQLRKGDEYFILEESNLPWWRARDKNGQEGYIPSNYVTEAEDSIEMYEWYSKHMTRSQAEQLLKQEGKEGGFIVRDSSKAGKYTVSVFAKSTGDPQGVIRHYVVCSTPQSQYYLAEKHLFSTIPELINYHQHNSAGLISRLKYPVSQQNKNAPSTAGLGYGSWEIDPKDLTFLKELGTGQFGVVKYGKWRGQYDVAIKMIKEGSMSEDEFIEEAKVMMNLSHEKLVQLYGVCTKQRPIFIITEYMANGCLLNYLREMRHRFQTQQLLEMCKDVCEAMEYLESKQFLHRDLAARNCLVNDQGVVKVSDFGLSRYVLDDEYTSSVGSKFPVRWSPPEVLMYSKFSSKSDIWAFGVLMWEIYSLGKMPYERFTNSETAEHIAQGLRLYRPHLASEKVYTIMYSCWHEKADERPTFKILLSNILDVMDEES

SMILES: c1cc(CC2CCOCC2)n2nc(Nc3ccc4c(NC5CCOCC5)n[nH]c4c3)nc2c1 [CC-509, [3-(2H-3,4,5,6-tetrahydropyran-4-ylamino)(1H-indazol-6-yl)][5-(2H-3,4,5,6-tetrahydropyran-4-ylmethyl)(2H-1,2,4-triazolo[1,5-a]pyridin-2-yl)]amine]
- remaining activity at 3 µM (PRAK_h): 91%
- remaining activity at 3 µM (MARK1_h): 48%
- remaining activity at 3 µM (JAK2-JH1-JH2_h): 4%
- remaining activity at 3 µM (HIPK1_h): 94%
- remaining activity at 3 µM (Ros_h): 74%
- remaining activity at 3 µM (JAK2_h; [1]): 4%
- IC50 (JAK2_h; [2]): 0.0189 µM
- remaining activity at 3 µM (PKA_h): 93%
- remaining activity at 3 µM (PDGFR-beta_h): 43%
- remaining activity at 3 µM (PAK7_h): 86%
- remaining activity at 3 µM (JNK3_h): 94%
- remaining activity at 3 µM (CaMKIV_h): 100%
- remaining activity at 3 µM (Fyn_h): 74%
- remaining activity at 3 µM (cSRC-N1_h): 58%
- remaining activity at 3 µM (SRPK2_h): 111%
- remaining activity at 3 µM (BTK_h): 72%
- remaining activity at 3 µM (CLK1_h): 82%
- remaining activity at 3 µM (Ron_h): 74%
- remaining activity at 3 µM (MSK1_h): 94%
- remaining activity at 3 µM (PhK-gamma2_h): 103%
- remaining activity at 3 µM (EGFR_L858R_h): 101%
- remaining activity at 3 µM (Abl_G250E_h): 29%
- remaining activity at 3 µM (EGFR_T790M_L858R_h): 52%
- remaining activity at 3 µM (AMPK_A2_B1_G1_h): 63%
- remaining activity at 3 µM (CSK_h): 70%
- remaining activity at 3 µM (CAMK1_h): 86%
- remaining activity at 3 µM (MuSK_h): 41%
- remaining activity at 3 µM (Rse_h): 53%
- remaining activity at 3 µM (Rsk2_h): 49%
- remaining activity at 3 µM (BRK_h): 87%
- remaining activity at 3 µM (Ret_h; [1]): 13%
- IC50 (Ret_h; [2]): 0.397 µM
- remaining activity at 3 µM (FGFR1_h): 69%
- remaining activity at 3 µM (CK2_h): 94%
- remaining activity at 3 µM (TAO1_h): 96%
